Test results reported in US4272507A, “Phenylaminothiophenacetic acids, their synthesis, compositions and use” (priority 1978, dated 1981).
Where two headings read alike, the source gives them in different places.

What was measured:
[1] = versus phenylbutazone; Alpermann 1970, 1972; cited from earlier work
[2] = tested on: yeast-induced fever in rats; experiment: Antipyretic action: yeast-induced fever in rats; assay type: in vivo, rats (female Sprague-Dawley); conditions: for ED (1.5 degC): Rattus norvegicus, po, read-out: ED1.5 (dose which causes a maximum reduction in yeast-induced fever of 1.5° C.); for Therapeutic quotient LD50/ED2.5: yeast-induced fever, LD50 7 days
Description: The antipyretic action is determined by the influence of the compounds to be tested on yeast-induced fever in rats.
Hyperthermia is produced in female Sprague-Dawley rats (in groups of 5 animals; weight of each animal: 160 to 180 g) by subcutaneous injection (neck) of 10 ml/kg of a 20 percent strength aqueous brewer's yeast suspension (brewer's yeast "Heliosan"/Hefereformwerk Radolfzell). 24 hours after the yeast injection, the compounds to be tested are administered orally to the animals in a volume of liquid of 5 ml/kg, and a control group receives the corresponding amount of tapwater. The feed (Altromin®R, water ad libitum) was withdrawn from the rats 18 hours beforehand. The rats are kept at about 23° C.
The body temperature is recorded 1 hour before administration of the substance and at hourly intervals after administration of the substance.
[…] The body temperature is measured with a temperature probe (Tastomed H, Braun electronic).

[3] = tested on: carrageenin edema of the hind paw of rats; experiment: Acute antiphlogistic action: carrageenin edema of the hind paw of rats after single oral administration; conditions: for ED50: Rattus norvegicus, po, read-out: ED50 (dose which causes a maximum edema inhibition of 50%); for Therapeutic quotient LD50/ED50: carrageenin edema, LD50 7 days oral; for Therapeutic quotient LD50/ED50 / Maximum inhibition of carrageenin edema within 7 hours after oral administration: rats
Description: (§1) Biol. Med., 111 (1962) 544]}, on chronic inflammatory processes {Cotton pellet test on rats [Winter et al.: J. Pharmacol. exp. Therap., 141 (1963) 369]} and on adjuvant arthritis [based on the method of Perrine et al., Brit. J. Pharmacol., 21 (1963) 127] is determined.
The influence of the compounds to be tested on carrageenin edema of the hind paw of rats was determined as follows:
The rats are kept at 24° C.
The paw volume of each rat is determined (2 to 3 individual measurements in each case) before edema provocation and at hourly intervals for 7 hours after edema provacation. The average percentage paw swelling of each treated group determined at the specified times after the carrageenin injection is related to that of the untreated control group (=100%).
The maximum percentage edema inhibition serves as a measure of the antiphlogistic action.
The paw volume is determined plethysmometrically. Measuring principle: the volume of liquid displaced through the paw of the rat is recorded digitally via an electromechanical pressure transducer (Statham P 23 V, 0-200 mm Hg).
The doses indicated for the compounds tested were administered in a volume of liquid of 20 ml/kg.

in vivo = conditions: rat, po
[4] = tested on: pain reaction provoked in rats by bending an inflamed ankle (AgNO3 arthritis); experiment: animal or person; assay type: in vivo
Description: Based on the method of HOFFMEISTER et al. [Arzneim. Forsch., 24, (1974) 600], 0.2 ml of a 1% strength silver nitrate solution is injected into the ankle joint (inside) of the right hind paw of female Sprague-Dawley rats (each animal weighing about 160 to 180 g) under ether anaesthesia. The animals are kept at 24° C. and are fed Altromin®R and water ad libitum. After the AgNO3 injection, almost all the animals (90 to 95%) can be made to cry out by moderate bending of the ankle joint. All the animals reacting positively are collected into groups of 10 animals. The compounds to be tested are administered orally in a volume of liquid of 10 ml/kg immediately after administration of the AgNO3; the untreated control animals receive the corresponding amount of tapwater.
Over a period of 4 hours after administration of the substance, the number of animals reacting is determined at half hourly intervals.
The maximum percentage of the protected animals over a period of 4 hours after administration of the substance [relative to the number of animals in the control group reacting (=100%)] serves as a measure of the analgesic action.

[5] = tested on: adjuvant arthritis in rats; experiment: Antiarthritic action: adjuvant arthritis in rats (Mycobacterium butyricum)
Description: as §1
The influence of the compounds to be tested on polyarthritis in rats caused by Mycobacterium butyricum (so-called "adjuvant arthritis") was determined using the experimental arrangement hereafter described: based on the method described by NEWBOULD and PERRINE et al. [NEWBOULD, B. B.; Brit. J. Pharmacol. 21, 127 (1963); and PERRINE, J. W. and TAKESUE, E. I.; Arch. int. Pharmacodyn., 174, 192 to 198 (1968)], so-called adjuvant arthritis, which manifests itself chiefly in a severe swelling of the tail (primary lesion) and of the paws (secondary lesion), is caused in rats by intradermal injection of a Mycobact. butyricum suspension in liquid paraffin into the base of the tail. Antiphlogistic agents inhibit this swelling reaction.

rats = conditions: 7 days (Table 6)
[6] = tested on: formation of granulation tissue after subcutaneous implantation of cotton; experiment: Chronic antiphlogistic action: cotton pellet test (formation of granulation tissue) in rats; conditions: rats; for Therapeutic quotient LD50/ED20: cotton pellet test, LD50 7 days oral; for Inhibition of the formation of granulation tissue after treatment for 7 days: sodium salt
Description: as §1
Experimental procedure for investigating the influence of the compounds to be tested on the formation of granulation tissue after implantation of cotton in rats (so-called cotton pellet method):
1 cotton pellet (manufacturer: Messrs. Hartmann/Heidenheim; cotton pellets size 2, No. 4865/2) which weighs 13.0±0.5 mg and has been impregnated beforehand with 0.1 ml of a solution of 0.5 mg of penicillin G and 0.8 mg of streptomycin sulfate/1 ml of distilled water is in each case implanted subcutaneously into the shoulder-blade region, on both sides, of male Sprague-Dawley rats (groups of 8 animals each; weight of each animal: 150 to 170 g) under diethyl ether anaesthesia and under sterile conditions. The cut skin is closed by means of clamps.
The compounds to be tested (in the form of the sodium salt in aqueous solution) or the corresponding amount (5 ml/kg/day) of tapwater (=control group) are administered orally each day on seven successive days. On the eighth day, the animals are killed and the cotton granules are exposed carefully, that is to say preserving the fibrous tissue capsule, dried (15 hours at 120°) and weighed. By substracting the weight of the cotton pellets, the amount of newly formed granulation tissue is obtained.
The percentage reduction in the average granuloma dry weight of a treated group compared with the control group (=100%) serves as a measure of the antiproliferative action of a compound.

[7] = AgNO3 arthritis pain, LD50 7 days oral, rats
[8] = rats, single oral dose 0.3 mg/kg

Row | SMILES | ED (1.5 degC) ([2]; rats, perorally, single dose) | ED50 [3] | Therapeutic quotient LD50/ED50 [3] | LD50 at 168 h (in vivo) | Maximum reduction in yeast-induced fever over a period of 7 hours [2, 8] | Therapeutic quotient LD50/ED2.5 ([2]; rats) | Maximum inhibition of carrageenin edema within 7 hours after oral administration ([3]; single oral dose 3.0 mg/kg) | further results
1 | Cc1cccc(Nc2cscc2C(=O)O)c1Cl [2-chloro-3-methylphenyl derivative] |  |  |  |  |  |  |  | actions [1]: superior to those of phenylbutazone
2 | Cc1c(Cl)cccc1Nc1cscc1C(=O)O [2-methyl-3-chlorophenyl derivative] |  |  |  |  |  |  |  | actions [1]: superior to those of phenylbutazone
3 | O=C(O)c1cscc1Nc1c(Cl)cccc1Cl [Compound 1, 3-(2,6-dichloroanilino)thiophen-4-carboxylic acid] | 8.2 mg/kg | 56 mg/kg | 2.1 | 120 mg/kg |  |  |  | Maximum reduction in yeast-induced fever over a period of 7 hours ([2]; rats, single oral dose 1 mg/kg): 0 °C; Maximum reduction in yeast-induced fever over a period of 7 hours ([2]; rats, single oral dose 3 mg/kg): 0.6 °C; Maximum reduction in yeast-induced fever over a period of 7 hours ([2]; rats, single oral dose 10 mg/kg): 1.7 °C; Maximum reduction in yeast-induced fever over a period of 7 hours ([2]; rats, single oral dose 30 mg/kg): 2.1 °C; Maximum inhibition of carrageenin edema within 7 hours after oral administration ([3]; single oral dose 10.0 mg/kg): 31%; Maximum inhibition of carrageenin edema within 7 hours after oral administration ([3]; single oral dose 100.0 mg/kg): 57%; actions [1]: superior to those of phenylbutazone; Therapeutic quotient LD50/ED50 [4, 7]: 0.86; therapeutic quotient LD50/ED25 [4, 7]: 4; ED25 ([4]; Rattus norvegicus, po, read-out: ED25 (dose which completely suppresses the pain reaction in 25% of the animals)): 30 mg/kg; ED50 ([4]; Rattus norvegicus, po, rats, perorally, at the time of maximum action, read-out: ED50 (dose which completely suppresses the pain reaction in 50% of the animals)): 140 mg/kg; Inhibition of the pain reaction ([4]; rats, single oral dose 3 mg/kg): 10%; Inhibition of the pain reaction ([4]; rats, single oral dose 20 mg/kg): 20%; Inhibition of the pain reaction ([4]; rats, single oral dose 100 mg/kg): 40%; Inhibition of the pain reaction ([4]; rats, single oral dose 200 mg/kg): 60%; ED25 ([5]; Rattus norvegicus, po, 120 h, read-out: ED25 (inhibition of adjuvant arthritis of 25%)): 9 mg/kg/day; therapeutic quotient LD50/ED25 ([5]; adjuvant arthritis, LD50 7 days oral, rats): 13.3
4 | Cc1cccc(Cl)c1Nc1cscc1CC(=O)O [Compound 4, 4-(2-chloro-6-methylanilino)-3-thiophenacetic acid] | ~0.3 mg/kg | 3 mg/kg | > 6.7 | > 20 mg/kg | 1.4 °C | > 66.7 | 50% | LD50, lethal action after administration for 7 days (rats): > 20 mg/kg/day
5 | Cc1ccc(Cl)c(Nc2cscc2CC(=O)O)c1Cl [Compound 5, 4-(2,6-dichloro-3-methylanilino)-3-thiophenacetic acid] | < 0.3 mg/kg |  |  | 8 mg/kg | 1.7 °C | > 26.7 |  | Therapeutic quotient LD50/ED20 [6]: 5; Inhibition of the formation of granulation tissue after treatment for 7 days ([6]; 7 x 1.0 mg/kg/day orally): 16%; Inhibition of the formation of granulation tissue after treatment for 7 days ([6]; 7 x 3.0 mg/kg/day orally): 26%
6 | O=C(O)Cc1sccc1Nc1c(Cl)cccc1Cl [Compound 6, 3-(2,6-dichloroanilino)-2-thiophenacetic acid] | < 0.3 mg/kg | ~3 mg/kg | > 6.7 | > 20 mg/kg | 1.7 °C | > 66.7 | 52% | LD50, lethal action after administration for 7 days (rats): > 20 mg/kg/day
7 | Cc1cccc(Nc2cscc2CC(=O)O)c1Cl [Compound 7, 4-(2-chloro-3-methylanilino)-3-thiophenacetic acid] |  |  |  | > 20 mg/kg |  |  |  | Therapeutic quotient LD50/ED20 [6]: > 5.7; Inhibition of the formation of granulation tissue after treatment for 7 days ([6]; 7 x 3.0 mg/kg/day orally): 19%; Inhibition of the formation of granulation tissue after treatment for 7 days ([6]; 7 x 10.0 mg/kg/day orally): 27%
8 | Cc1c(Cl)cccc1Nc1cscc1CC(=O)O [Compound 8, 4-(3-chloro-2-methylanilino)-3-thiophenacetic acid] |  | ~3 mg/kg | > 10 | > 30 mg/kg |  |  | 49% | 
9 | O=C(O)Cc1csc(Cl)c1Nc1c(Cl)cccc1Cl [Compound 10, 5-chloro-4-(2,6-dichloroanilino)-3-thiophenacetic acid] |  |  |  |  | 1.2 °C |  |  | ED (1.5 degC) [2]: 0.5 mg/kg; Maximum reduction in yeast-induced fever over a period of 7 hours ([2]; rats, single oral dose 0.6 mg/kg): 1.6 °C
10 | Cc1cccc(Cl)c1Nc1ccsc1CC(=O)O [Compound 11, 3-(2-chloro-6-methylanilino)-2-thiophenacetic acid] |  | ~3 mg/kg | > 6.7 | > 20 mg/kg |  |  | 49% | 
11 | O=C(O)Cc1cscc1Nc1c(F)cccc1F [Compound 12, 4-(2,6-difluoroanilino)-3-thiophenacetic acid] | 0.9 mg/kg |  |  | > 30 mg/kg | 0.5 °C | > 33 |  | Maximum reduction in yeast-induced fever over a period of 7 hours ([2]; rats, single oral dose 1 mg/kg): 1.6 °C
